Here are results for 8 molecules from article PMC11059095.

The series is described as follows: Brønsted acid catalysed 8-endo cationic carbocyclisation of biphenyl-embedded enynes (C-C bond between tertiary carbocation from protonated alkene and distal alkyne carbon); TfOH 10 mol%, vinyl cation trapped by H2O (1.1 equiv) or internal nucleophile. As to conditions: the molecule shown is the open-chain precursor, 8-membered ring, 1,2-dichloroethane, 50.0 mM, 60.0 °C.

For `COc1cccc(CC#Cc2ccccc2-c2ccccc2C=C(C)C)c1` [1v -> 6v], the ring closure, isolated yield came to 29%.

`CC#Cc1ccccc1-c1ccc(OC)cc1C=C(C)C` [1r -> 3r]: the ring closure, isolated yield (2.0 h) is 82%.

With `CC#Cc1ccccc1-c1ccccc1C=C(C)C` [1b -> 3b], the ring closure, isolated yield (2.0 h) amounted to 99%.

For `CC#Cc1ccccc1-c1cc(Cl)ccc1C=C(C)C` [1p -> 3p], the ring closure, isolated yield (2.0 h) was determined as 99%.

Take `CC#Cc1cc(OC)ccc1-c1ccccc1C=C(C)C` [1s -> 3s]: the ring closure, isolated yield (2.0 h) was 70%.

Regarding `CC(C)=Cc1ccccc1-c1ccccc1C#CCCO` [1u -> 6u], the ring closure, isolated yield stood at 31%.

On to `CC#Cc1cc(OC)c(C)c(OC)c1-c1cc(Cl)ccc1C=C(C)C` [1t -> 3t], for which, where the note is “2.0 h”, the ring closure, isolated yield is 45%.

In the case of `CC#Cc1cc(Cl)ccc1-c1ccccc1C=C(C)C` [1q -> 3q], where the note is “2.0 h”, the ring closure, isolated yield is 95%.
